Source: patent publication US9550792B2, “Polycyclic substituted pyrazole kinase activity inhibitors and use thereof” (priority 2013, dated 2017)
Several values for one entry are separate records, joined by “and”; a condition that tells them apart may be missing. Equal values may be shown once. Read-outs that look alike come from different tables or passages of the source.

Legend:
lung cancer cell H1299 = assay: Anti-tumor activity in vitro, MTT method; assay type: cell-based; conditions: Homo sapiens, NCI-H1299, 48 h, read-out: H1299 (IC50/μM)
Plasma stability = assay type: in vitro ADME; conditions: rat plasma
Description: (§1) 300 μL blood collected from the rat was mixed with 30 μL methanol and 2 mL ethyl acetate. The samples were vortexed for 3 min and centrifuged at 4000 rpm for 15 min. The supernatant was introduced into another centrifugal tube. The lower layer was repeatedly extracted and then the supernatants were combined and dried with nitrogen gas. After redissolution with 150 μL methanol, they were filtered by 0.22 μm membrane and then subjected to analysis with a injection volume of 20 μL.
[…] The samples were prepared according to the method of 3.1. 20 μL were introduced into the HPLC system and the peak area is recorded for analysis to determine the stability of compound 1 and 2 in plasma.

[1] = Pharmacokinetics after single oral dose in rats; assay type: in vivo, Wistar rat
Description: as §1
An amount of compound was taken accurately to prepare CMC-Na aqueous solution containing 3 mg/mL of drug. 12 healthy male Wister rats were randomly assigned to two groups, each group including 6 rats. The first group was administrated orally compound 1. The second group was administrated orally compound 2. The doses were both 30 mg/kg (corresponding to 2 mL for each rat). The rats were fasting for 12 h before administration and free access to water. 0.6 mL blood samples were collected at 0.5, 1, 1.5, 2, 2.5, 3, 5, 8, 12 and 24 h after drug administration from the venous sinuses and added into EP tubes which were rinsed with heparin sodium previously. The samples were centrifuged at 4,000 r/min for 15 min and the upper plasma were obtained. 300 μL plasma was subjected to analysis and the chromatogram and peak area were recorded. The plasma concentrations of compounds 1 and 2 were calculated to give average concentration-time curve.
DAS 2.0 program was used to analyze plasma concentration vs. time data after s single oral dose (Table 6, 7). Fitting and the AIC methods were used to determine the model. The analysis was based on the principle that the larger fitting and the smaller AIC, the better model. The oral administration was consistent with the two-compartment model. The statistical distance parameter is used to compare the 2 compounds for the pharmacokinetic parameters.

S180 grafting tumor = assay: Inhibition to S180 grafting tumor in animal; assay type: in vivo, ICR mouse; conditions: for Body weight After administration / Tumor inhibition / Tumor weight: 7 administrations; for Tumor inhibition / Tumor weight: d8
Description: ICR mouse was inoculated with solid tumor according to tumor grafting process (tumor piece was weighed under sterile condition, homogenized with glass tissue homogenizer, placed within a sterile container, to which was added physiological saline to prepare 1:3 cell suspension. The container was placed on ice and aspirated and the cells were mixed homogeneously before each aspiration. Each mouse was inoculated subcutaneously 0.2 mL at right fore axilla). […] The mice were administered intravenously, once a day and 7 administrations in total. The administration volume was 0.4 ml/20 g. The mice bearing tumor were sacrificed 8 days after inoculation (d8). The tumor tissue was separated and weighed. The data was analyzed with statistics method (t-test).
Dose setting: 5 groups in total.

[2] = test system: breast cancer cell line MDA231; assay: Anti-tumor activity in vitro, MTT method; conditions: Homo sapiens, MDA-MB-231, 48 h, read-out: MDA231 (IC50/μM)
Description: (§2) MTT method: the dehydrogenase associated with NADP in the mitochondria of living cell is capable of reducing exogenous MTT into insoluble bluish violet crystal (Formazan), which is precipitated in the cell. […] DMSO or Triple liquid (10% SDS-5% isobutanol-0.01 mol/L HCl) is used to dissolve the crystal in the cell. The OD determined at 570 nm by a microplate reader can reflect the amount of the living cell indirectly.
(§3) The crystal is dissolved with DMSO and the detection is performed on a microplate reader.

[3] = test system: stomach cancer cell line BSG823; assay: Anti-tumor activity in vitro, MTT method; conditions: 48 h, read-out: BSG823 (IC50/μM)
Description: as §2, §3

leukemia cell line K562 = assay: Anti-tumor activity in vitro, MTT method; conditions: Homo sapiens, K562, 48 h, read-out: K562 (IC50/μM)
Description: as §2, §3

[4] = test system: breast cancer cell line MCF-7; assay: Anti-tumor activity in vitro, MTT method; conditions: Homo sapiens, MCF7, 48 h, read-out: MCF7 (IC50/μM)
Description: as §2, §3

[5] = test system: resistant breast cancer cell line MCF-7; assay: Anti-tumor activity in vitro, MTT method; conditions: Homo sapiens, MCF7, 48 h, read-out: Resistant MCF7 (IC50/μM)
Description: as §2, §3

leukemia cell line NB4 = assay: Anti-tumor activity in vitro, MTT method; conditions: 48 h, read-out: NB4 (IC50/μM)
Description: as §2, §3

[6] = test system: liver cancer cell line HEPG2; assay: Anti-tumor activity in vitro, MTT method; conditions: Homo sapiens, HepG2, 48 h, read-out: HEPG2 (IC50/μM)
Description: as §2, §3

[7] = test system: umbilical cord vein endothelium cell line HUVEC; assay: Anti-tumor activity in vitro, MTT method; conditions: Homo sapiens, 48 h, read-out: HUVEC (IC50/μM)
Description: as §2, §3

[8] = test system: lung cancer cell line A549; assay: Anti-tumor activity in vitro, MTT method; conditions: Homo sapiens, A549, 48 h, read-out: A549 (IC50/μM)
Description: as §2, §3

[9] = male, Wistar, plasma, rat, oral 30 mg/kg
[10] = 7.5 mg/kg intravenously once a day
[11] = 15 mg/kg intravenously once a day
[12] = 30 mg/kg intravenously once a day

CN1CCN(Cc2ccc(NC(=O)c3n[nH]cc3Nc3ncnc4sccc34)cc2)CC1 [Compound I-1, 4-(4-thieno[2,3-d]pyrimidinylamino)-N-(4-((4-methyl-1-piperazinyl)methyl)phenyl)-1H-3-pyrazole carboxamide]
IC50 (lung cancer cell H1299): 3.3 µM
plasma stability in 24 h (in words) (Plasma stability; 24 h): good plasma stability
Plasma stability (HPLC reading) (Plasma stability; Time 0 h): 2.16
Plasma stability (HPLC reading) (Plasma stability; Time 1 h): 2.24
Plasma stability (HPLC reading) (Plasma stability; Time 2 h): 2.22
Plasma stability (HPLC reading) (Plasma stability; Time 3 h): 2.12
Plasma stability (HPLC reading) (Plasma stability; Time 5 h): 2.11
Plasma stability (HPLC reading) (Plasma stability; Time 8 h): 1.91
Plasma stability (HPLC reading) (Plasma stability; Time 12 h): 1.84
Plasma stability (HPLC reading) (Plasma stability; Time 24 h): 1.95
Cmax [1, 9]: 241 ± 103 ng/mL
Tmax [1, 9]: 5.5 ± 2.29 h
half-life [1, 9]: 45.8 ± 29.1 h
AUC(0-t) ([1]; male, Wistar, plasma, rat, oral 30 mg/kg, read-out: AUC 0-24): 3350 ± 468 ng·h/mL
MRT last ([1]; male, Wistar, plasma, rat, oral 30 mg/kg, read-out: MRT 0-24): 11.6 ± 1.09 h
concentration at 0.5 h ([1]; male, Wistar, rat, plasma, po, 30 mg/kg, mean of rats, oral 30 mg/kg, time 0.5 h, read-out: Plasma concentration, mean): 72.7 ng/mL
concentration at 1 h ([1]; male, Wistar, rat, plasma, po, 30 mg/kg, mean of rats, oral 30 mg/kg, time 1 h, read-out: Plasma concentration, mean): 82.8 ng/mL
concentration at 2 h ([1]; male, Wistar, rat, plasma, po, 30 mg/kg, mean of rats, oral 30 mg/kg, time 2 h, read-out: Plasma concentration, mean): 103 ng/mL
concentration at 2.5 h ([1]; male, Wistar, rat, plasma, po, 30 mg/kg, mean of rats, oral 30 mg/kg, time 2.5 h, read-out: Plasma concentration, mean): 113 ng/mL
concentration at 3 h ([1]; male, Wistar, rat, plasma, po, 30 mg/kg, mean of rats, oral 30 mg/kg, time 3 h): 154 ng/mL
concentration at 5 h ([1]; male, Wistar, rat, plasma, po, 30 mg/kg, mean of rats, oral 30 mg/kg, time 5 h): 164 ng/mL
concentration at 8 h ([1]; male, Wistar, rat, plasma, po, 30 mg/kg, mean of rats, oral 30 mg/kg, time 8 h, read-out: Plasma concentration, mean): 195 ng/mL
concentration at 12 h ([1]; male, Wistar, rat, plasma, po, 30 mg/kg, mean of rats, oral 30 mg/kg, time 12 h, read-out: Plasma concentration, mean): 134 ng/mL
concentration at 24 h ([1]; male, Wistar, rat, plasma, po, 30 mg/kg, mean of rats, oral 30 mg/kg, time 24 h): 123 ng/mL
concentration at 0.5 h ([1]; male, Wistar, rat, plasma, po, 30 mg/kg, rat No. 1-6, oral 30 mg/kg, time 0.5 h, read-out: Plasma concentration, individual rats): 68.8 ng/mL
concentration at 1 h ([1]; male, Wistar, rat, plasma, po, 30 mg/kg, rat No. 1-6, oral 30 mg/kg, time 1 h, read-out: Plasma concentration, individual rats): 105 ng/mL
concentration at 2 h ([1]; male, Wistar, rat, plasma, po, 30 mg/kg, rat No. 1-6, oral 30 mg/kg, time 2 h, read-out: Plasma concentration, individual rats): 114 ng/mL
concentration at 2.5 h ([1]; male, Wistar, rat, plasma, po, 30 mg/kg, rat No. 1-6, oral 30 mg/kg, time 2.5 h, read-out: Plasma concentration, individual rats): 100 ng/mL
concentration at 8 h ([1]; male, Wistar, rat, plasma, po, 30 mg/kg, rat No. 1-6, oral 30 mg/kg, time 8 h, read-out: Plasma concentration, individual rats): 157 ng/mL
concentration at 12 h ([1]; male, Wistar, rat, plasma, po, 30 mg/kg, rat No. 1-6, oral 30 mg/kg, time 12 h, read-out: Plasma concentration, individual rats): 108 ng/mL
Plasma concentration, individual rats ([1]; rat No. 1-6, oral 30 mg/kg, time 0.5 h, 30 mg/kg): 68.95 ng*ml/1 and 65.08 ng*ml/1 and 76.41 ng*ml/1 and 80.51 ng*ml/1 and 76.52 ng*ml/1
Plasma concentration, individual rats ([1]; rat No. 1-6, oral 30 mg/kg, time 1 h, 30 mg/kg): 65.58 ng*ml/1 and 73.81 ng*ml/1 and 81.17 ng*ml/1 and 80.91 ng*ml/1 and 90.92 ng*ml/1
Plasma concentration, individual rats ([1]; rat No. 1-6, oral 30 mg/kg, time 2 h, 30 mg/kg): 97.96 ng*ml/1 and 100.94 ng*ml/1 and 86.23 ng*ml/1 and 86.97 ng*ml/1 and 132.81 ng*ml/1
Plasma concentration, individual rats ([1]; rat No. 1-6, oral 30 mg/kg, time 2.5 h, 30 mg/kg): 96.8 ng*ml/1 and 113.35 ng*ml/1 and 104.16 ng*ml/1 and 106.91 ng*ml/1 and 158.41 ng*ml/1
Plasma concentration, individual rats ([1]; rat No. 1-6, oral 30 mg/kg, time 3 h, 30 mg/kg): 149.67 ng*ml/1 and 112.43 ng*ml/1 and 125.86 ng*ml/1 and 78.87 ng*ml/1 and 266.46 ng*ml/1 and 191.06 ng*ml/1
Plasma concentration, individual rats ([1]; rat No. 1-6, oral 30 mg/kg, time 5 h, 30 mg/kg): 174.04 ng*ml/1 and 159.33 ng*ml/1 and 115.59 ng*ml/1 and 172.92 ng*ml/1 and 127.6 ng*ml/1 and 232.81 ng*ml/1
Plasma concentration, individual rats ([1]; rat No. 1-6, oral 30 mg/kg, time 8 h, 30 mg/kg): 150.59 ng*ml/1 and 233.26 ng*ml/1 and 151.83 ng*ml/1 and 271.51 ng*ml/1 and 205.77 ng*ml/1
Plasma concentration, individual rats ([1]; rat No. 1-6, oral 30 mg/kg, time 12 h, 30 mg/kg): 135.84 ng*ml/1 and 153.29 ng*ml/1 and 135.94 ng*ml/1 and 110.59 ng*ml/1 and 162.93 ng*ml/1
Plasma concentration, individual rats ([1]; rat No. 1-6, oral 30 mg/kg, time 24 h, 30 mg/kg): 126.6 ng*ml/1 and 105.83 ng*ml/1 and 167.23 ng*ml/1 and 133.16 ng*ml/1 and 79.81 ng*ml/1 and 123.91 ng*ml/1
pharmacokinetic parameters (in words) ([1]; rat, oral 30 mg/kg): acceptable
Body weight After administration (S180 grafting tumor; [10]): 24.00 ± 0.75 g
Tumor inhibition (S180 grafting tumor; [10]): 36.94%
Tumor weight (S180 grafting tumor; [10]): 0.74 ± 0.19 g
effect on S180 tumor growth compared to the model control group (in words) (S180 grafting tumor; 7.5 mg/kg, P<0.05): significant inhibitory effect
Body weight After administration (S180 grafting tumor; [11]): 20.00 ± 1.94 g
Tumor inhibition (S180 grafting tumor; [11]): 45.2%
Tumor weight (S180 grafting tumor; [11]): 0.63 ± 0.11 g
effect on S180 tumor growth compared to the model control group (in words) (S180 grafting tumor; 30 mg/kg and 15 mg/kg, P<0.01): very significant inhibitory effect
effect on the body weight of experimental animals (in words) (S180 grafting tumor; 30 mg/kg and 15 mg/kg, P<0.05): significant inhibitory effect on the body weight
Body weight After administration (S180 grafting tumor; [12]): 20.43 ± 3.20 g
Tumor inhibition (S180 grafting tumor; [12]): 55.5%
Tumor weight (S180 grafting tumor; [12]): 0.52 ± 0.25 g
IC50 [2]: 5.45 µM
IC50 [3]: 20.7 µM
IC50 (leukemia cell line K562): 3.2 µM
IC50 [4]: 0.42 µM
IC50 [5]: 3.73 µM
IC50 (leukemia cell line NB4): 0.74 µM
IC50 [6]: 25.2 µM
IC50 [7]: 2.54 µM
IC50 [8]: 50.3 µM
